In article PMC8399196, “Synthesis, Characterization, and Anticancer Activity of Benzothiazole Aniline Derivatives and Their Platinum (II) Complexes as New Chemotherapy Agents” (Pharmaceuticals, 2021):
“Also recorded” adds a separate entry of the source.

Assays:
HeLa cells = experiment: CCK-8 cell viability assay, HeLa; format: cell-based; settings: HeLa human cervical cancer cells, CCK-8, 24 h, mean ± SEM, n = 3
Procedure: (§1) Human colorectal adenocarcinoma cells (HT-29, ATCC® HTB-38), adenocarcinomic human alveolar basal epithelial cells (A549, ATCC® CCL-185), and prostate cancer (PC-3, ATCC® CRL-1435) were cultured in the growth medium, containing Roswell Park Memorial Institute Medium (RPMI1640) WelGENE, Daegu, Korea supplemented with 10% (v/v) fetal bovine serum (FBS, Gibco, Grand Island, NY, USA) and 1% antibiotics-antimycotics (Gibco). Human breast adenocarcinoma cells (MCF-7, ATCC® HTB-22™), hepatocellular carcinoma (HepG2, ATCC® HB-8065™), Rattus brain glioma (C6, ATCC ® CRL-2303™), and human renal carcinoma (Caki-2, ATCC® HTB-47™) cells were cultured in Dulbecco’s modified Eagle’s medium (DMEM, WelGENE, Daegu, Korea) supplemented with 10% (v/v) FBS (Gibco) and 1% antibiotics-antimycotics (Gibco). Mouse brain neural (NE-4C, ATCC® CRL-2925™) and human cervix adenocarcinoma cells (HeLa, ATCC® CCL-2™) were cultured in Eagle’s minimum essential medium (EMEM, ATCC® 30-2003™) supplemented with 10% FBS (Gibco) and 1% antibiotics-antimycotics (Gibco). Mouse liver normal cells (AML12, ATCC® CRL-2254™) were cultured in DMEM/F-12 (WelGENE) supplemented with 10% FBS (Gibco), 1 × ITS (10 μg/mL insulin, 5.5 μg/mL transferrin, 6.7 ng/mL selenium, Gibco), […] 1% antibiotics-antimycotics (Gibco). Human breast epithelial cells (MCF 10A, ATCC® CRL-10317™) were cultured in DMEM/F-12 (WelGENE) supplemented with 5% horse serum (Gibco), 20 ng/mL epidermal growth factor (EGF, Peprotech Inc., Rocky Hill, NJ, USA), […] (Sigma-Aldrich, St. Louis, MO, USA), 100 ng/mL colera toxin (Sigma-Aldrich), 10 μg/mL insulin (Sigma-Aldrich) and 1% antibiotics- (Gibco). Human colon normal epithelial cells (FHC, ATCC® CRL-18317™) were cultured in DMEM/F-12 (WelGENE) supplemented with 10% FBS (Gibco), 10 ng/mL cholera toxin (Sigma-Aldrich), 20 ng/mL EGF (Peprotech Inc.), 100 μg/mL hydrocortisone (Sigma-Aldrich), 1 × ITS (10 μg/mL insulin, 5.5 μg/mL transferrin, 6.7 ng/mL selenium, Gibco) and 1% antibiotics-antimycotics (with 100 units penicillin, 100 μg streptomycin and 250 ng amphotericin B per mL, Gibco). Cells were incubated in a humidified 5% CO2 atmosphere at 37 °C.
(§2) To evaluate cytotoxicity, cells were seeded in a 96-well plate (FHC, 0.5 × 10^4 cells/well; Caki-2 and MCF 10A, 1 × 10^4 cells/well; AML12, 1.2 × 10^4 cells/well; HeLa, HEK-293, A549, and PC-3, 1.5 × 10^4 cells/well; HT-29, MCF-7, C6, HepG2, and NE-4C, 2 × 10^4 cells/well). […] In addition, cell counting kit-8 (CCK-8, Dojindo Laboratories, Kumamoto, Japan) solution was added to each well, and the plate was incubated for 2 h. The absorbance was then measured at 450 nm using a microplate reader (SpectraMax i3, Molecular Devices, San Jose, CA, USA). The IC50 and logIC50 values were calculated in GraphPad Prism (GraphPad Prism Software Inc. Version 5.02, San Diego, CA, USA). All experiments were performed, independently, three times. The graph of logIC50 values represents the average value.

PC-3 cells = experiment: CCK-8 cell viability assay, PC-3; format: cell-based; settings: PC-3 human prostate cancer cells, CCK-8, 24 h, mean ± SEM, n = 3
Procedure: as §1, §2

AML12 cells = experiment: CCK-8 cell viability assay, AML12 normal cells; format: cell-based; settings: AML12 normal mouse liver hepatocyte cells, CCK-8, 24 h, mean ± SEM, n = 3
Procedure: as §1, §2

FHC cells = experiment: CCK-8 cell viability assay, FHC normal cells; format: cell-based; settings: FHC normal human colon epithelial cells, CCK-8, 24 h, mean ± SEM, n = 3
Procedure: as §1, §2

A549 cells = experiment: CCK-8 cell viability assay, A549; format: cell-based; settings: A549 human lung cancer cells, CCK-8, 24 h, mean ± SEM, n = 3
Procedure: as §1, §2

HEK-293 cells = experiment: CCK-8 cell viability assay, HEK-293 normal cells; format: cell-based; settings: HEK-293 human embryonic kidney cells, CCK-8, 24 h, mean ± SEM, n = 3
Procedure: as §2

NE-4C cells = experiment: CCK-8 cell viability assay, NE-4C normal cells; format: cell-based; settings: NE-4C mouse brain neural stem cells, CCK-8, 24 h, mean ± SEM, n = 3
Procedure: as §1, §2

HT-29 cells = experiment: CCK-8 cell viability assay, HT-29; format: cell-based; settings: HT-29 human colon cancer cells, CCK-8, 24 h, mean ± SEM, n = 3
Procedure: as §1, §2

MCF-7 cells = experiment: CCK-8 cell viability assay, MCF-7; format: cell-based; settings: MCF-7 human breast cancer cells, CCK-8, 24 h, mean ± SEM, n = 3
Procedure: as §1, §2

MCF-10A cells = experiment: CCK-8 cell viability assay, MCF-10A normal cells; format: cell-based; settings: MCF-10A normal human breast epithelial cells, CCK-8, 24 h, mean ± SEM, n = 3
Procedure: as §1, §2

Caki-2 cells = experiment: CCK-8 cell viability assay, Caki-2; format: cell-based; settings: Caki-2 human renal cancer cells, CCK-8, 24 h, mean ± SEM, n = 3
Procedure: as §1, §2

C6 cells = experiment: CCK-8 cell viability assay, C6; format: cell-based, Rattus; settings: C6 brain glioma cells, CCK-8, 24 h, mean ± SEM, n = 3
Procedure: as §1, §2

HepG2 cells = experiment: CCK-8 cell viability assay, HepG2; format: cell-based; settings: HepG2 human hepatic carcinoma cells, CCK-8, 24 h, mean ± SEM, n = 3
Procedure: as §1, §2

[1] = Solubility in water / aqueous media; format: physicochemical
[2] = Stability in buffered aqueous solution by UV-Vis spectroscopy; format: physicochemical; settings: for Stability, time-dependent UV-Vis spectrum: 1 mM in PBS (L1Pt: 2% DMSO in PBS), physiological pH 7.4, t = 0, 7, 24 h, 200-450 nm; for Stability, time-dependent UV-Vis spectrum at other pH-values: 1 mM in PBS, acidic (pH 2), weakly acidic (pH 5), alkaline (pH 12), t = 0, 7, 24 h
Procedure: An indispensable feature of any promising anticancer agent is its thermodynamic stability in aqueous media. All prospective agents should be able to reach their target under the conditions encountered in living organisms. Therefore, the stability of the compounds was measured at 1 mM in phosphate-buffered saline (PBS) solution using UV–Vis spectroscopy. […] The stability of the metal complexes is often dependent on the pH value and the pH 4.5–5.0 is crucial since endosomal uptake of the complexes by lysosomes can occur.

SMILES	IC50 (HeLa cells)	IC50 (PC-3 cells)	IC50 (AML12 cells)	IC50 (FHC cells)	IC50 (A549 cells)	IC50 (HEK-293 cells; HEK293)	IC50 (NE-4C cells; Neural stem cell)	IC50 (HT-29 cells)	IC50 (MCF-7 cells; MCF7)	IC50 (MCF-10A cells)	IC50 (Caki-2 cells)	IC50 (C6 cells; Rattus norvegicus)	IC50 (HepG2 cells)	IC50 (HEK-293 cells)	IC50 (NE-4C cells)	IC50 (MCF-7 cells)	IC50 (C6 cells)	further results
Nc1ccc(-c2nc3ccccc3s2)cc1 [BTA, 2-(4-aminophenyl)-benzothiazole, reference compound]	76.4 ± 23.4 µM	182 ± 7.8 µM	> 500 µM	> 500 µM	> 500 µM	> 500 µM	60.9 ± 2.9 µM	275 ± 5 µM	104 ± 28.6 µM	401 ± 136 µM	463 ± 44.1 µM	425 ± 47.7 µM	52 ± 5.7 µM	–	–	–	–	–
N.N.[Cl][Pt][Cl] [Cisplatin, cis-diamminedichloroplatinum-(II), reference compound]	26.2 ± 5.6 µM	> 500 µM	32.1 ± 4.4 µM	> 500 µM	> 500 µM	–	–	39.1 ± 0.6 µM	–	95.9 ± 6.7 µM	> 500 µM	–	54.2 ± 31.8 µM	65.5 ± 4.1 µM	9 ± 0.3 µM	204 ± 27.3 µM	227 ± 34.3 µM	IC50 (AML12 cells; listed as cisplatin): 32 µM
NCC(N)C(=O)Nc1ccc(-c2nc3ccccc3s2)cc1 (stereo not drawn) [Compound L1, 2,3-Diamino-N-(4-benzothiazol-2-yl-phenyl)-propionamide]	41.9 ± 3.4 µM	94.9 ± 0.8 µM	138 ± 24.1 µM	72.7 ± 2 µM	100 ± 8.4 µM	68.1 ± 2.8 µM	36.8 ± 3.7 µM	29.9 ± 0.3 µM	65.9 ± 12.3 µM	65.1 ± 1.9 µM	75.6 ± 3.4 µM	77.8 ± 9.7 µM	5.9 ± 0.5 µM	–	–	–	–	Solubility in water / aqueous media [1]: soluble in water; Stability, time-dependent UV-Vis spectrum [2]: did not display any significant changes throughout 24 h; Stability, time-dependent UV-Vis spectrum at other pH-values [2]: no obvious changes in the absorptions peak
O=C(Nc1ccc(-c2nc3ccccc3s2)cc1)C1C[NH2+][Pt-2]([Cl])([Cl])[NH2+]1 (stereo not drawn) [Compound L1Pt]	64.7 ± 0.3 µM	55.7 ± 7.5 µM	139 ± 0.8 µM	64.3 ± 2.4 µM	167 ± 11.2 µM	–	–	42.6 ± 5.6 µM	–	46.9 ± 5.1 µM	106 ± 8.5 µM	–	7.5 ± 0.1 µM	54.9 ± 2.8 µM	25.7 ± 1.7 µM	59 ± 11 µM	93.3 ± 22.7 µM	Solubility in water / aqueous media [1]: poor solubility in aqueous media; Stability, time-dependent UV-Vis spectrum [2]: did not display any significant changes throughout 24 h; also recorded: remains stable over 24 h; Stability, time-dependent UV-Vis spectrum at other pH-values [2]: no obvious changes in the absorptions peak
O=C(Nc1ccc(-c2nc3ccccc3s2)cc1)C(C/N=C/c1ccccc1O)/N=C/c1ccccc1O (stereo not drawn) [Compound L2, N-(4-Benzothiazol-2-yl-phenyl)-2,3-bis-[(2-hydroxy-benzylidene)amino] propionamide]	47 ± 6 µM	116 ± 5 µM	> 500 µM	189 ± 10.3 µM	182.4 ± 0.8 µM	139 ± 20.1 µM	28.2 ± 0.1 µM	135 ± 4.4 µM	98.1 ± 7.9 µM	79.3 ± 25.4 µM	159 ± 4.3 µM	143 ± 32.7 µM	14.2 ± 7 µM	–	–	–	–	–
O=C(Nc1ccc(-c2nc3ccccc3s2)cc1)C1C[N+]2=Cc3ccccc3[O][Pt-2]23[O]c2ccccc2C=[N+]13 (stereo not drawn) [Compound L2Pt]	221 ± 15.8 µM	> 500 µM	> 500 µM	> 500 µM	> 500 µM	–	–	173 ± 3.2 µM	–	> 500 µM	> 500 µM	–	31.6 ± 3.6 µM	212 ± 14.9 µM	47 ± 4.1 µM	> 500 µM	> 500 µM	–
O=C(Nc1ccc(-c2nc3ccccc3s2)cc1)C1CNC(c2ccccn2)=N1 (stereo not drawn) [Compound L3, 2-Pyridin-2-yl-4,5-dihydro-1H-imidazole-4-carboxylic acid (4-benzothiazol-2-yl-phenyl)amide]	98.9 ± 3.5 µM	130 ± 34.7 µM	> 500 µM	> 500 µM	> 500 µM	> 500 µM	22.4 ± 2.4 µM	70.5 ± 0.2 µM	190 ± 16.5 µM	> 500 µM	> 500 µM	142 ± 15.3 µM	> 500 µM	–	–	–	–	–
O=C(Nc1ccc(-c2nc3ccccc3s2)cc1)C1CNC2=[N+]1[Pt-2]([Cl])([Cl])[n+]1ccccc12 (stereo not drawn) [Compound L3Pt]	> 500 µM	> 500 µM	> 500 µM	> 500 µM	> 500 µM	–	–	> 500 µM	–	> 500 µM	> 500 µM	–	> 500 µM	206 ± 7.4 µM	32.4 ± 6 µM	> 500 µM	> 500 µM	–
